# Experimental data: PubChem BioAssay AID1250 (SRMLSC, 2008)
# pIC50: −log10 of the molar value.
# Test system: BSR cells, Bluetongue virus CPE, ATP luminescence, 72 h
# Assay: inhibitors of Bluetongue virus cytopathic effect, confirmation, arbovirus, BSR cells (AID 1250)
row,Compound,pIC50
1,C(=N\Nc1nc(-c2ccccc2)cs1)/c1cccs1,4.81
2,COCCCn1c(N)c(-c2nc3ccccc3n2C)c2nc3ccccc3nc21,5.12
3,O=C(Nc1nc(-c2ccc(Cl)cc2Cl)cs1)c1ccc(OCC2CCCO2)cc1 (centres undefined),5.29
4,CC(C)(C)n1nnnc1C(c1ccc(C(F)(F)F)cc1)N(Cc1ccc(F)cc1)Cc1ccco1 (centres undefined),4.69
5,CCCCCCc1cc2cc(C(=O)Nc3ccccc3OC)c(=O)oc2cc1O,5.04
6,C=CCn1c(CNC(=O)c2cccs2)nnc1SCc1ccc(Cl)cc1Cl,4.96
7,Cc1nn(-c2ccccc2)c(Cl)c1/C=N/Nc1ccc(Cl)c(C(=O)O)c1,4.84
8,O=C(O)c1cccc(N/N=C/C2=C(Cl)c3cc(Cl)ccc3SC2)c1,4.88
9,COc1ccc(-c2csc(NC(=O)C3=NN(c4ccccc4)C(=O)CC3)n2)cc1,4.68
10,O=C(Nc1ccccc1)Nc1snnc1C(=O)Nc1cccc(O)c1,4.72
11,COc1cccc(C(=O)Nc2nc(-c3ccc4c(c3)OCO4)cs2)c1,5.00
12,CC(=O)OC[C@H]1O[C@@H](n2ncc(=O)[nH]c2=O)[C@H](OC(C)=O)[C@@H]1OC(C)=O,5.01
13,O=C(CSc1nc(-c2ccccc2)nc2c1Cc1ccccc1O2)Nc1ccc(C(=O)O)cc1,4.76
14,CC(NC(=O)c1cccs1)c1nnc(SCc2ccc(Cl)cc2Cl)n1C (centres undefined),5.03
15,CC(C)Cc1csc(NC(=O)c2ccccc2Cl)c1C(=O)O,4.69
16,O=C(Nc1nc(-c2ccccc2)cs1)c1cccs1,5.00
17,CCNc1nc(SCCOc2ccc(Cl)cc2Cl)nc(N(C)C)n1,5.23
18,CC(C)Sc1nsc2nc(=O)c(/C=C3\C=Nc4ccccc43)c(N)n12,4.99
19,CCc1nn2c(N)c(/C=C3\C=Nc4ccccc43)c(=O)nc2s1,4.74
20,COc1ccc(Cn2c(C)c(C)c(C#N)c2NC(=O)Nc2cccc(C)c2)cc1,5.12
21,CC(C)(C)c1ccc(C(=O)Nc2sc3c(c2C(=O)O)CCC3)cc1,6.78
22,O=c1[nH]n2c(=O)c3c([nH]c2c1N=Nc1cccc(Cl)c1)CCCC3,4.73

row,Compound,pIC50
1,CCOc1ccc(C(=O)Nc2cc(NC(=O)c3ccc(OCC)c(Cl)c3)cc(C(=O)O)c2)cc1Cl,4.68
2,CCOc1cc(/C=C(/C#N)c2ccc(Cl)cc2)cc(Cl)c1OCC(=O)O,4.69
3,COc1ccc(NC(=O)c2cc3cccc(OC)c3oc2=Nc2ccc(C(=O)O)cc2)cc1OC,4.88
4,CC(C(=O)Nc1ccccc1-c1ccccc1)N1CCN(S(=O)(=O)c2ccccc2)CC1 (centres undefined),5.85
5,Cc1nc(CS(=O)c2ccc(Cl)cc2)cc(NCc2ccc(Cl)cc2Cl)n1 (centres undefined),5.03
6,O=C(/C=C/c1ccco1)Nc1sc2c(c1C(=O)O)CCC2,4.77
7,Cc1ccc(-c2csc(NC(=O)c3cccs3)n2)cc1,5.30
8,CCOc1ccc(N=Nc2c(=O)[nH]n3c(=O)c4c([nH]c23)CCCC4)cc1,4.78
9,CCOc1ccc(-c2cc3nc(C4CCN(C(=O)OC(C)(C)C)CC4)c(C(=O)O)cn3n2)cc1,4.70
10,CCOC(=O)c1ccc(N2C(=O)C3C(/C=C/c4ccccc4)OC4(C(=O)c5ccccc5C4=O)C3C2=O)cc1 (centres undefined),4.71
11,COc1ccc(Cl)cc1NC(=O)c1cc(-c2ccccc2O)n[nH]1,4.84
12,O=C(/C=C/c1cccs1)Nc1scc(-c2ccccc2)c1C(=O)O,5.21
13,COc1ccc(C2C=C(c3ccc(C)cc3)Nc3ncnn32)cc1 (centres undefined),4.89
14,N#Cc1sc2nc(-c3cccs3)cc(-c3ccc(F)cc3)c2c1N,5.64
15,CC(C)(C)c1c(Cl)c(O)c(-c2ccccc2)c(=O)n1-c1ccccc1,4.81
16,CC(C)c1ccc(-c2csc(NC(=O)c3cccs3)c2C(=O)O)cc1,4.96
17,Nc1nc(-c2ccccc2)c(-c2ccc([N+](=O)[O-])cc2)s1,5.25
18,O=C(O)c1ccc(N2C(=O)/C(=C/c3ccc(-c4ccc([N+](=O)[O-])cc4)o3)C=C2c2ccccc2)cc1,5.27
19,Oc1ccc(Br)cc1-c1cc(-c2ccc(Cl)cc2)n[nH]1,4.76
20,Cc1ccc(-c2csc(NC(=O)/C=C/c3ccco3)c2C(=O)O)cc1,5.07
21,COc1ccc(NC(=O)c2c[nH]n3c(=O)cc(C4CCN(C(=O)OC(C)(C)C)CC4)nc23)cc1Cl,4.91
22,COc1cc([N+](=O)[O-])ccc1NC(=O)CC1SC(=Nc2ccc(F)cc2)N(CCC2=CCCCC2)C1=O (centres undefined),6.97
